31 compounds from patent publication US20230303540A1 (Merck Sharp & Dohme LLC, priority 2020, published 2023) can be followed below.

This assay concerns the target GST-tagged truncated human mutant G2019S LRRK2 (Homo sapiens, UniProt Q5S007, G2019S). Kind of assay: LRRK2 G2019S Km ATP LanthaScreen assay. The conditions noted are these: 134 μM ATP (Km ATP), LRRKtide substrate, mean IC50 values; read-out: LRRK2 pIC50 (converted). The class given is biochemical. In a few lines: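 LanthaScreen TR-FRET read with fluorescein-LRRKtide and 134 μM ATP (Km) in Tris pH 8.5/10 mM MgCl2 buffer. The enzyme was preincubated 15 min with compound at room temperature, and the reaction ran 90 min at ambient temperature. Stopped with EDTA plus Tb anti-phospho-LRRKtide antibody; the 520/495 nm ratio gave a 4-parameter logistic IC50, mean of several runs.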
In the case of `Cc1c(Nc2ncc3cc(Cl)c(N4CCN(C5COC5)[C@@H](C)C4)cc3n2)cnn1CCF` [Ex-4.14, 6-chloro-N-[1-(2-fluoroethyl)-5-methyl-1H-pyrazol-4-yl]-7-[(3S)-3-methyl-4-(oxetan-3-yl)piperazin-1-yl]quinazolin-2-amine], the IC50 was 0.969 nM.

As to `Cn1ncc(Nc2ncc3cc(Cl)c(N4CCN(C5(C)COC5)CC4)cc3n2)c1C(F)(F)F` [Ex-4.15, 6-chloro-7-[4-(3-methyloxetan-3-yl)piperazin-1-yl]-N-[1-methyl-5-(trifluoromethyl)-1H-pyrazol-4-yl]quinazolin-2-amine], the IC50 was 19.3 nM.

Take `CC1(N2CCN(c3cc4nc(Nc5cnn(C6(C)CC6)c5)ncc4cc3Cl)CC2)COC1` [Ex-4.16, 6-chloro-N-[1-(1-methylcyclopropyl)-1H-pyrazol-4-yl]-7-[4-(3-methyloxetan-3-yl)piperazin-1-yl]quinazolin-2-amine]: the IC50 is 1.12 nM.

As to `CC1(N2CCN(c3cc4nc(Nc5cnn(C6CC6)c5Cl)ncc4cc3Cl)CC2)COC1` [Ex-4.17, 6-chloro-N-(5-chloro-1-cyclopropyl-1H-pyrazol-4-yl)-7-[4-(3-methyloxetan-3-yl)piperazin-1-yl]quinazolin-2-amine], the IC50 is 2.32 nM.

Turning to `CC1(N2CCN(c3cc4nc(Nc5cnn(C6CC6)c5)ncc4cc3Cl)CC2)COC1` [Ex-4.18, 6-chloro-N-(1-cyclopropyl-1H-pyrazol-4-yl)-7-[4-(3-methyloxetan-3-yl)piperazin-1-yl]quinazolin-2-amine], the IC50 was 2.39 nM.

As for `CC1(N2CCN(c3cc4nc(Nc5cnn(CC(F)(F)F)c5)ncc4cc3Cl)CC2)COC1` [Ex-4.19, 6-chloro-7-[4-(3-methyloxetan-3-yl)piperazin-1-yl]-N-[1-(2,2,2-trifluoroethyl)-1H-pyrazol-4-yl]quinazolin-2-amine], the IC50 was 3.03 nM.

In the case of `CC1(N2CCN(c3cc4nc(Nc5cnn6c5CCC6)ncc4cc3Cl)CC2)COC1` [Ex-4.20, 6-chloro-N-(5,6-dihydro-4H-pyrrolo[1,2-b]pyrazol-3-yl)-7-[4-(3-methyloxetan-3-yl)piperazin-1-yl]quinazolin-2-amine], the IC50 is 2.59 nM.

Regarding `Cn1cc(Nc2ncc3cc(Cl)c(N4CCN(C5(C)COC5)CC4)cc3n2)c(C(F)(F)F)n1` [Ex-4.21, 6-chloro-7-[4-(3-methyloxetan-3-yl)piperazin-1-yl]-N-[1-methyl-3-(trifluoromethyl)-1H-pyrazol-4-yl]quinazolin-2-amine], the IC50 is 36.8 nM.

For the compound `CC1(N2CCN(c3cc4nc(Nc5cnn(C6(C)CC6)c5Cl)ncc4cc3Cl)CC2)COC1` [Ex-4.22, 6-chloro-N-[5-chloro-1-(1-methylcyclopropyl)-1H-pyrazol-4-yl]-7-[4-(3-methyloxetan-3-yl)piperazin-1-yl]quinazolin-2-amine], the IC50 is 0.625 nM.

Consider `CC1(O)CC2(CN(c3cc4nc(Nc5cnn(C6CC6)c5)ncc4cc3Cl)C2)C1` [Ex-4.23, 2-{6-chloro-2-[(1-cyclopropyl-1H-pyrazol-4-yl)amino]quinazolin-7-yl}-6-methyl-2-azaspiro[3.3]heptan-6-ol], for which the IC50 is 2.47 nM.

As to `CC1CCC12CN(c1cc3nc(Nc4cnn(C5(C)CC5)c4Cl)ncc3cc1Cl)C2` (stereo not shown) [Ex-4.24, 6-chloro-N-[5-chloro-1-(1-methylcyclopropyl)-1H-pyrazol-4-yl]-7-(5-methyl-2-azaspiro[3.3]heptan-2-yl)quinazolin-2-amine], the IC50 was 218 nM.

Regarding `CC1(O)CC2(CN(c3cc4nc(Nc5cnn(C6(C)CC6)c5Cl)ncc4cc3Cl)C2)C1` [Ex-4.27, 2-(6-chloro-2-{[5-chloro-1-(1-methylcyclopropyl)-1H-pyrazol-4-yl]amino}quinazolin-7-yl)-6-methyl-2-azaspiro[3.3]heptan-6-ol], the IC50 was 1.6 nM.

For the compound `CC1(O)CC2(CN(c3cc4nc(Nc5cnn(C6CC6)c5Cl)ncc4cc3Cl)C2)C1` [Ex-4.28, 2-{6-chloro-2-[(5-chloro-1-cyclopropyl-1H-pyrazol-4-yl)amino]quinazolin-7-yl}-6-methyl-2-azaspiro[3.3]heptan-6-ol], the IC50 is 1.05 nM.

Take `CCC1(N2CCN(c3cc4nc(Nc5cnn(C6(C)CC6)c5Cl)ncc4cc3Cl)CC2)COC1` [Ex-4.29, 6-chloro-N-[5-chloro-1-(1-methylcyclopropyl)-1H-pyrazol-4-yl]-7-[4-(3-ethyloxetan-3-yl)piperazin-1-yl]quinazolin-2-amine]: the IC50 was 5.28 nM.

For `CCC1(N2CCN(c3cc4nc(Nc5cnn(C6CC6)c5Cl)ncc4cc3Cl)CC2)COC1` [Ex-4.30, 6-chloro-N-(5-chloro-1-cyclopropyl-1H-pyrazol-4-yl)-7-[4-(3-ethyloxetan-3-yl)piperazin-1-yl]quinazolin-2-amine], the IC50 was 15.7 nM.

As to `CC1(N2CCN(c3cc4nc(Nc5cnn(C(C)(C)C)c5Cl)ncc4cc3Cl)CC2)COC1` [Ex-4.31, N-(1-tert-butyl-5-chloro-1H-pyrazol-4-yl)-6-chloro-7-[4-(3-methyloxetan-3-yl)piperazin-1-yl]quinazolin-2-amine], the IC50 was 1.01 nM.

On to `CC1(n2ncc(Nc3ncc4cc(Cl)c(N5CCC(N6CC(F)(F)C6)CC5)cc4n3)c2Cl)CC1` [Ex-4.32, 6-chloro-N-[5-chloro-1-(1-methylcyclopropyl)-1H-pyrazol-4-yl]-7-[4-(3,3-difluoroazetidin-1-yl)piperidin-1-yl]quinazolin-2-amine], for which the IC50 was 2.02 nM.

On to `CC(C)(C)n1ncc(Nc2ncc3cc(Cl)c(N4CCC(N5CC(F)(F)C5)CC4)cc3n2)c1Cl` [Ex-4.33, N-(1-tert-butyl-5-chloro-1H-pyrazol-4-yl)-6-chloro-7-[4-(3,3-difluoroazetidin-1-yl)piperidin-1-yl]quinazolin-2-amine], for which the IC50 is 4.75 nM.

As for `CC1(O)CCN(c2cc3nc(Nc4cnn(C5(C)CC5)c4Cl)ncc3cc2Cl)CC1` [Ex-4.34, 1-(6-chloro-2-{[5-chloro-1-(1-methylcyclopropyl)-1H-pyrazol-4-yl]amino}quinazolin-7-yl)-4-methylpiperidin-4-ol], the IC50 was 0.625 nM.

For `CN1CC2CC1CN2c1cc2nc(Nc3cnn(C4(C)CC4)c3Cl)ncc2cc1Cl` (stereo not shown) [Ex-4.35, 6-chloro-N-[5-chloro-1-(1-methylcyclopropyl)-1H-pyrazol-4-yl]-7-(5-methyl-2,5-diazabicyclo[2.2.1]heptan-2-yl)quinazolin-2-amine], the IC50 was 4.91 nM.

As to `C[C@H]1CN(C)CCN1c1cc2nc(Nc3cnn(C4(C)CC4)c3Cl)ncc2cc1Cl` [Ex-4.36, 6-chloro-N-[5-chloro-1-(1-methylcyclopropyl)-1H-pyrazol-4-yl]-7-[(2S)-2,4-dimethylpiperazin-1-yl]quinazolin-2-amine], the IC50 was 6.06 nM.

Turning to `CN1CC2(C1)CN(c1cc3nc(Nc4cnn(C5(C)CC5)c4Cl)ncc3cc1Cl)C2` [Ex-4.37, 6-chloro-N-[5-chloro-1-(1-methylcyclopropyl)-1H-pyrazol-4-yl]-7-(6-methyl-2,6-diazaspiro[3.3.]heptan-2-yl)quinazolin-2-amine], the IC50 was 1.24 nM.

For the compound `CC1(n2ncc(Nc3ncc4cc(Cl)c(N5CC6(CN(CC(F)(F)F)C6)C5)cc4n3)c2Cl)CC1` [Ex-4.38, 6-chloro-N-[5-chloro-1-(1-methylcyclopropyl)-1H-pyrazol-4-yl]-7-[6-(2,2,2-trifluoroethyl)-2,6-diazaspiro[3.3]heptan-2-yl]quinazolin-2-amine], the IC50 was 29.4 nM.

Take `CC1(n2ncc(Nc3ncc4cc(Cl)c(N5CCC(N6CC(F)C6)CC5)cc4n3)c2Cl)CC1` [Ex-4.39, 6-chloro-N-[5-chloro-1-(1-methylcyclopropyl)-1H-pyrazol-4-yl]-7-[4-(3-fluoroazetidin-1-yl)piperidin-1-yl]quinazolin-2-amine]: the IC50 is 0.625 nM.

For `CO[C@H]1CCN(c2cc3nc(Nc4cnn(C5(C)CC5)c4Cl)ncc3cc2Cl)C1` [Ex-4.40, 6-chloro-N-[5-chloro-1-(1-methylcyclopropyl)-1H-pyrazol-4-yl]-7-[(3S)-3-methoxypyrrolidin-1-yl]quinazolin-2-amine], the IC50 is 15.2 nM.

Take `C[C@H]1CN(c2cc3nc(Nc4cnn(C5(C)CC5)c4Cl)ncc3cc2Cl)CCN1C1COC1` [Ex-4.41, 6-chloro-N-[5-chloro-1-(1-methylcyclopropyl)-1H-pyrazol-4-yl]-7-[(3S)-3-methyl-4-(oxetan-3-yl)piperazin-1-yl]quinazolin-2-amine]: the IC50 was 1.91 nM.

With `CN1CCC2(CCN(c3cc4nc(Nc5cnn(C6(C)CC6)c5Cl)ncc4cc3Cl)C2)C1` (stereo not shown) [Ex-4.42, 6-chloro-N-[5-chloro-1-(1-methylcyclopropyl)-1H-pyrazol-4-yl]-7-(7-methyl-2,7-diazaspiro[4.4]nonan-2-yl)quinazolin-2-amine], the IC50 was 6.55 nM.

Take `CC1CN(C2CCN(c3cc4nc(Nc5cnn(C6(C)CC6)c5Cl)ncc4cc3Cl)CC2)C1` [Ex-4.43, 6-chloro-N-[5-chloro-1-(1-methylcyclopropyl)-1H-pyrazol-4-yl]-7-[4-(3-methylazetidin-1-yl)piperidin-1-yl]quinazolin-2-amine]: the IC50 is 3.52 nM.

With `CN1CCN(c2cc3nc(Nc4cnn(C5(C)CC5)c4Cl)ncc3cc2Cl)CC1=O` [Ex-4.44, 4-(6-chloro-2-{[5-chloro-1-(1-methylcyclopropyl)-1H-pyrazol-4-yl]amino}quinazolin-7-yl)-1-methylpiperazin-2-one], the IC50 is 20 nM.

For the compound `CC1(n2ncc(Nc3ncc4cc(Cl)c(N5CCn6cnnc6C5)cc4n3)c2Cl)CC1` [Ex-4.45, 6-chloro-N-[5-chloro-1-(1-methylcyclopropyl)-1H-pyrazol-4-yl]-7-(5,6-dihydro[1,2,4]triazolo[4,3-a]pyrazin-7(8H)-yl)quinazolin-2-amine], the IC50 is 1.27 nM.

Regarding `CC1(N2CCN(c3cc4nc(Nc5cnn(C(C)(C)C)c5)ncc4cc3Cl)CC2)COC1` [Ex-4.46, N-(1-tert-butyl-1H-pyrazol-4-yl)-6-chloro-7-[4-(3-methyloxetan-3-yl)piperazin-1-yl]quinazolin-2-amine], the IC50 was 0.792 nM.
